The results in this text go back to US20260216099A1, “BROMOQUINONE AS A TREATMENT FOR OBESITY AND CANCER” (priority 2023, published 2026).

Series [1] concerns commercially available cell lines. Briefly: Cell growth of commercially available cell lines (halogen-Q0C10). It is filed as cell-based. The following applies: many commercially available cell lines.
In series [2] the test system is isolated beef liver mitochondria. The series is described as follows: Energy coupling (oxidative phosphorylation) in isolated mitochondria treated with bromoquinone. It is filed as biochemical. The following applies: NADH linked substrate; 2 instead of 3. How it is done: Introducing an electron-withdrawing group such as bromine should have an effect on the redox potential and UV spectrum, and this is indeed the case. Bromoquinone has a higher redox potential than that of Coenzyme Q10, by about 30 mV and UV spectral shift by 24 nm. A decrease of approximately 30% of energy conservation efficiency has been observed in isolated mitochondria that were treated with bromoquinone. This decrease may be due to the loss of energy conservation site II at Complex III in the bromoquinone-treated mitochondria (2).
When the rats were given 0.3 mL of a high fat mixture daily in addition to normal diet, a significant increase in weight gain was observed. […] Using NADH linked substrate 6-Br-Q0C10 treated mitochondria has a P/O ratio of 2 instead of 3. 6-Br-Q0C10 causes a by-passing of oxidative phosphorylation site 2 because of its high redox-potential.

In a further series the test system is rMC-1 cells. The series is described as follows: Cell counting assay (Trypan Blue), cell growth. In kind it is cell-based, Rat. As to conditions: 48 hours. How it is done:
(§1) Cell Counting Assay: For the cell counting assay, rMc-1, ARPE-19, and HepG2 cells were cultured in DMEM with 4.5 g/L glucose supplemented with 10% fetal bovine serum (FBS), penicillin, and streptomycin. These cells were seeded at 50% confluency before bromoquinone treatment. About 5,000 cells were seeded in a 24-well plate and treated with various amounts of bromoquinone and incubated at 37° C. under 5% CO2. Cell growth was examined by cell counting stained with Trypan Blue. The Raw264.7 and L929 cells were cultured in DMEM supplemented with 10% (vol/vol) heat-inactivated FBS (SH30910.03; Hyclone) at 37° C. and 5% CO2. THP-1 cells were cultured in RPMI-1640 medium supplemented with 10% (v/v) heat-inactivated FBS at 37° C. and 5% CO2.
(§2) When the cell lines (rM-1, ARPE-19 and Hep G2) were cultured for 48 hours in their corresponding media in the presence of various concentrations (0, 0.5, 2.5. 5, and 10 μM) of bromoquinone, the cell survival rate decreased as the concentration of bromoquinone increased. When the concentration of bromoquinone was 10 μM, the cell survival rate decreased by 70-80%, while under the same conditions, no effect on cell growth was observed if normal coenzyme Q or Q0C10 was used.

The next series has as its system ARPE19 cells. The series is described as follows: Cell counting assay (Trypan Blue), cell growth. It is filed as cell-based, Human. The following applies: 48 hours. How it is done:
as §1, §2

The subject of another series is Hep G2 cells. The series is described as follows: Cell counting assay (Trypan Blue), cell growth. In kind it is cell-based, Human. As to conditions: for Effect of Bromoquinone on the Growth (cell survival, % of 0 μM): Hep G2 cells, 48 hours. As for the experimental part: as §1, §2
Series [3] relates to L-929, Raw 264-7 and THP-1 cells. Briefly: Cell growth, live cell number by Trypan Blue (FIG. 3A). It is filed as cell-based, Mouse; Human. As for the experimental part:
as §1
Cell Attachment Assay: For the cell attachment assay, Raw264.7 and L929 cells were pre-seeded (100,000 cells/well) in 12-well plates (overnight incubation) at 37° C. and 5% CO2. Bromoquinone was added 24 hours after pre-seeding, and cell attachment was determined by counting attached cells at 72 hours post-treatment. […] Bromoquinone was added 24 hours after pre-seeding, and cell attachment was determined by counting attached cells at 72 hours post-treatment. […] The live cell number was determined by Trypan Blue staining. […]

Series [4] has the same test system. The series is described as follows: Cell attachment assay (FIG. 3B). In kind it is cell-based, Mouse; Human. As to conditions: 72 hours post-treatment. How it is done:
(§3) Cell Attachment Assay: For the cell attachment assay, Raw264.7 and L929 cells were pre-seeded (100,000 cells/well) in 12-well plates (overnight incubation) at 37° C. and 5% CO2. Bromoquinone was added 24 hours after pre-seeding, and cell attachment was determined by counting attached cells at 72 hours post-treatment. THP-1 cells were pre-seeded (100,000 cells/well) in the presence of 320 nM phorbol-12-myristate-13-acetate (PMA) in 12-well plates (overnight incubation) at 37° C. and 5% CO2. Bromoquinone was added 24 hours after pre-seeding, and cell attachment was determined by counting attached cells at 72 hours post-treatment. Raw264.7, L929, and THP-1 cells were cultured in 12-well plates (100,000 cells/well) in the presence of bromoquinone for 72 hours at 37° C. and 5% CO2. The live cell number was determined by Trypan Blue staining. HEK293 and HeLa cells were cultured in DMEM supplemented with 10% (v/v) fetal bovine serum and 1% (v/v) penicillin-streptomycin. INS-1 cells were cultured in RPMI 1640 media supplemented with 10% (v/v) FBS and 1% (v/v) penicillin-streptomycin. All the cells were incubated at 37° C. and 5% CO2 atmosphere in 10-cm plates. When the cells reached about-80% confluency, they were harvested and cultured on 96-well plates with 5×10^3 cells seeded per well. […]

The test system of the next series is ADSC cells. Briefly: Cell growth by cell counting, Trypan Blue and hemocytometer (FIG. 4A). It is filed as cell-based, Human. As for the experimental part: (§4) FIGS. 4A, 4B, and 4C illustrate the effect of bromoquinone on cell growth of HEK293, HeLa, INS-1, and ADSC cells. […] Cells were stained with bisbenzimide.
(§5) Cell Attachment Assay: For the cell attachment assay, Raw264.7 and L929 cells were pre-seeded (100,000 cells/well) in 12-well plates (overnight incubation) at 37° C. and 5% CO2. Bromoquinone was added 24 hours after pre-seeding, and cell attachment was determined by counting attached cells at 72 hours post-treatment. THP-1 cells were pre-seeded (100,000 cells/well) in the presence of 320 nM phorbol-12-myristate-13-acetate (PMA) in 12-well plates (overnight incubation) at 37° C. and 5% CO2. Bromoquinone was added 24 hours after pre-seeding, and cell attachment was determined by counting attached cells at 72 hours post-treatment. Raw264.7, L929, and THP-1 cells were cultured in 12-well plates (100,000 cells/well) in the presence of bromoquinone for 72 hours at 37° C. and 5% CO2. The live cell number was determined by Trypan Blue staining. HEK293 and HeLa cells were cultured in DMEM supplemented with 10% (v/v) fetal bovine serum and 1% (v/v) penicillin-streptomycin. INS-1 cells were cultured in RPMI 1640 media supplemented with 10% (v/v) FBS and 1% (v/v) penicillin-streptomycin. All the cells were incubated at 37° C. and 5% CO2 atmosphere in 10-cm plates. When the cells reached about-80% confluency, they were harvested and cultured on 96-well plates with 5×10^3 cells seeded per well. For each cell line, three 96-well plates were prepared—one for MTT assay and two for bisbenzimide-based nuclear fluorescent stain assay. After 24-hour incubation, the culture medium was replaced by the same medium containing various concentrations (0, 4, 8, 16, 32, and 64 μM) of bromoquinone. Three replicates were made for each condition. The plates then continued to be incubated for another 24 hours (two plates) or 48 hours (one plate). One plate with 24-hour treatment was used for the MTT cell viability assay. The other 24-hour treatment plate and the 48-hour treatment plate were used for the Bisbenzimide-based nuclear fluorescent stain cell imaging.
(§6) As described above, cell lines were cultured in their corresponding media in the presence of various concentrations of bromoquinone (0, 2, 4, 8, 16, 32, and 64 μM) for 48 and 72 hours. […] Similar results were obtained using the MTT assay (FIG. 4B). As expected, when the incubation was prolonged to 72 hours, more inhibition was observed.

The test system of the next series is HEK-293 cells. The description is as above. It is filed as cell-based, Human. As for the experimental part: as §4, §5, §6
The next series concerns HeLa cells. The series is described as above. It is filed as cell-based, Human. How it is done: as §4, §5, §6
The subject of another series is INS-1 cell line. The series is described as follows: Cell growth inhibition (FIG. 4). As to conditions: INS-1, highest concentration tested. In kind it is cell-based, Rat. How it is done: as §4
as §3, with “plates.” for “plates. When the cells reached about-80% confluency, they were harvested and cultured on 96-well plates with 5×10^3 cells seeded per well.”

A short description of series [5]: Rat growth study: body weight gain, toxicity, food and water consumption. In kind it is in vivo. As for the experimental part: 6-Br-Q0C10: Crude 6-Br-Q0C10 was available in the laboratory. It was further purified to homogeneity using thin layer chromatography. The purity of 6-Br-Q0C10 was confirmed by its absorption peak at 303 nm and the concentration was determined spectrophotometrically, using a millimolar extinction coefficient of 20 cm^−1 (13), Carboyxmethyl cellulose was obtained from Amazon. Olive oil and unsalted butter were obtained from the local supermarket. 9 Male F344 (born on Sep. 28, 2023) were purchased from Evigo RMS, Inc, 8520 Allison Pointe Blvd, Suite 4000, Indianapolis, Indiana 46250 on Oct. 17, 2023.
The rats were divided into three groups, three rats in each group. We followed their growth by body weight gained daily until Nov. 5, 2023, and then one group of rats received the 6-Br-Q0C10 treatment, and the second group received only the carrier media used to dissolve the 6-Br-Q0C10, and the third group was used as control without any treatment. All rats had free access to rat chow and water.
Various concentrations of 6-Br-Q0C10 were dissolved in 1% and 1.5% CMC, 40% ethanol, and a mixture of oil and unsalted butter (67:33). 6-Br-Q0C10 solutions and carriers were given to the rats by IG in a volume of 0.3 mL daily. The body weights of the rats were measured and recorded individually and as a group. JACUC Protocol No: SC2101

A short description of the next series: Redox potential. In kind it is physicochemical. The following applies: difference to Coenzyme Q10.
Series [6] deals with rM-1, ARPE-19 and Hep G2 cell lines. Briefly: Cell counting assay, statements for the three cell lines together. In kind it is cell-based, Rat; Human. The following applies: for effect on cell growth: same conditions as bromoquinone (up to 10 μM, 48 hours). As for the experimental part:
as §1, §2

Entries after “also recorded” stand apart in the source; their conditions may differ.

Take `CCCCCCCCCCC1=C(Cl)C(=O)C(OC)=C(OC)C1=O` [6-Cl-Q0C10, 6-Chloro-2,3-dimethoxy-5-decyl-1,4-benzoquinone]: the reducing cell growth entry in [1] was “effective in reducing cell growth”.

One may read the inhibition as the percentage by which the read-out fell short of the control. With `CCCCCCCCCCC1=C(Br)C(=O)C(OC)=C(OC)C1=O` [6-Br-Q0C10, 6-Bromo-2,3-dimethoxy-5-decyl-1,4-benzoquinone], the P/O ratio in series [2] is on record as 2. In addition, the “Effect of Bromoquinone on the Growth (cell survival, % of 0 μM)” value (from here on “Effect … (cell survival, % of 0 μM)”) in the series with rMC-1 cells (0.5 μM bromoquinone) stood at 88.2%; in the series on rMC-1 cells (1 μM bromoquinone), 80.1%; in the series on rMC-1 cells (2.5 μM bromoquinone), 68.1%; in the series on rMC-1 cells (5 μM bromoquinone), 36.2%; with rMC-1 cells (10 μM bromoquinone), 27.9%; in the series on ARPE19 cells (0.5 μM bromoquinone), 85.4%. Further, the “Effect … (cell survival, % of 0 μM)” value with ARPE19 cells (1 μM bromoquinone) was 80.9%; in the series on ARPE19 cells (2.5 μM bromoquinone), 60.0%; in the series on ARPE19 cells (5 μM bromoquinone), 41.9%; with ARPE19 cells (10 μM bromoquinone), 26.6%; with Hep G2 cells (0.5 μM bromoquinone), 103.1%; in the series on Hep G2 cells (1 μM bromoquinone), 107.8%. For the same molecule, the “Effect … (cell survival, % of 0 μM)” value with Hep G2 cells (2.5 μM bromoquinone) is listed as 104.2%; in the series with Hep G2 cells (5 μM bromoquinone), 98.1%; in the series with Hep G2 cells (10 μM bromoquinone), 93.3%. In addition, the “effect on Hep-G2 (cell growth)” value with Hep G2 cells (even at 10 μM) is given as “very small”. For the same molecule, the figures for the inhibition at 50 µM in series [3] and in [4] were at most 50% and 70%, respectively. In addition, the “inhibition (cell growth, cell counting)” value is reported as 82% in the series on ADSC cells (48 hours of treatment, FIG. 4A); 69% with HEK-293 cells (HEK-293, 48 hours of treatment, FIG. 4A); 66% with HeLa cells (48 hours of treatment, FIG. 4A). The “inhibition (cell growth)” value in the series on ADSC cells (72 hours) is recorded as 90%; with HEK-293 cells (HEK-293, 72 hours), 95%; in the series with HeLa cells (72 hours) it was 97%; in the series with INS-1 cell line, “less than 20%”. The “food and water consumption” value in series [5] (6-Br-Q0C10 treated rats) is listed as “slight increase”. For the same molecule, the “reduction in body weight gain” value in series [5] (rats, 0.5 mg/IG in 0.3 mL oil/butter (67%/33%) daily, compared to carrier mixture only) is on record as 30-40%. The “toxicity effect on rats” value in [5] (rats, even at the highest concentrations used) is reported as “no toxicity effect”. Besides, the “effect on growth (body weight gain)” value in [5] (rats, low concentrations, growth period) is recorded as “little effect; also recorded: slight”. Besides, the toxicity result in series [5] (rats, lower concentrations) is given as “no toxicity”. Also, the “redox potential higher than that of Coenzyme Q10” value in “Redox potential” was “about 30 mV”. Moreover, in series [6] (10 μM, 48 hours), the “decrease of cell survival rate” value is listed as 70-80%.

Turning to `CCCCCCCCCCC1=C(C)C(=O)C(OC)=C(OC)C1=O` [Q0C10, 2,3-dimethoxy-5-decyl-6-methyl-1,4-benzoquinone], the “effect on cell growth” value in [6] is given as “no effect”.

Turning to `COC1=C(OC)C(=O)C(CC=C(C)CCC=C(C)CCC=C(C)CCC=C(C)CCC=C(C)CCC=C(C)CCC=C(C)CCC=C(C)CCC=C(C)CCC=C(C)C)=C(C)C1=O` [coenzyme Q10, 2,3-dimethoxy-5-(isoprenyl)10-6-methyl-1,4-benzoquinone], the “effect on cell growth” value in [6] was “no effect”.
